From PubChem BioAssay AID1259407 (Chemical Carcinogenesis Research Information System (CCRIS), 2018)
Calls of active or inactive are those of the source. The rule behind the calls is not given here.

Test system: CCRIS mutagenicity, Ames/micronucleus/aberration tests
Assay: CCRIS mutagenicity studies

Q: For `c1ccc2c(c1)sc1ccccc12`, which mutagenic call (Test System: CHINESE HAMSTER OVARY, Strain/Indicator: CHO-K1-BH4 (HGPRT)/6-THIOGUANINE, Metabolic Activation: RAT, LIVER, S-9, AROCLOR (4%)) is on record?
A: Its mutagenic call is “inactive; negative”.

Q: `CCCCCC[C@@H](O)C/C=C\CCCCCCCC(=O)O` was tested. Which mutagenic call (Test System: AMES SALMONELLA TYPHIMURIUM, Strain/Indicator: TA98, Metabolic Activation: HAMSTER, LIVER, S-9, AROCLOR 1254, Method: PREINCUBATION) did it give?
A: The mutagenic call was “inactive; negative”.

Q: What about the mutagenic call (Test System: AMES SALMONELLA TYPHIMURIUM, Strain/Indicator: TA98, Metabolic Activation: NONE, Method: PREINCUBATION) of the same molecule?
A: The mutagenic call was “inactive; negative”.

Q: And the mutagenic call (Test System: AMES SALMONELLA TYPHIMURIUM, Strain/Indicator: TA98, Metabolic Activation: RAT, LIVER, S-9, AROCLOR 1254, Method: PREINCUBATION)?
A: Its mutagenic call is “inactive; negative”.

Q: What about the mutagenic call (Test System: AMES SALMONELLA TYPHIMURIUM, Strain/Indicator: TA100, Metabolic Activation: HAMSTER, LIVER, S-9, AROCLOR 1254, Method: PREINCUBATION) of the same molecule?
A: Its mutagenic call is “inactive; negative”.

Q: And the mutagenic call (Test System: AMES SALMONELLA TYPHIMURIUM, Strain/Indicator: TA100, Metabolic Activation: NONE, Method: PREINCUBATION)?
A: The mutagenic call was “inactive; negative”.

Q: What about the mutagenic call (Test System: AMES SALMONELLA TYPHIMURIUM, Strain/Indicator: TA100, Metabolic Activation: RAT, LIVER, S-9, AROCLOR 1254, Method: PREINCUBATION) of the same molecule?
A: Its mutagenic call is “inactive; negative”.

Q: And the mutagenic call (Test System: AMES SALMONELLA TYPHIMURIUM, Strain/Indicator: TA1535, Metabolic Activation: HAMSTER, LIVER, S-9, AROCLOR 1254, Method: PREINCUBATION)?
A: The mutagenic call was “inactive; negative”.

Q: And the mutagenic call (Test System: AMES SALMONELLA TYPHIMURIUM, Strain/Indicator: TA1535, Metabolic Activation: NONE, Method: PREINCUBATION)?
A: Its mutagenic call is “inactive; negative”.

Q: What about the mutagenic call (Test System: AMES SALMONELLA TYPHIMURIUM, Strain/Indicator: TA1535, Metabolic Activation: RAT, LIVER, S-9, AROCLOR 1254, Method: PREINCUBATION) of the same molecule?
A: Its mutagenic call is “inactive; negative”.

Q: What about the mutagenic call (Test System: AMES SALMONELLA TYPHIMURIUM, Strain/Indicator: TA1537, Metabolic Activation: HAMSTER, LIVER, S-9, AROCLOR 1254, Method: PREINCUBATION) of the same molecule?
A: The mutagenic call was “inactive; negative”.

Q: What about the mutagenic call (Test System: AMES SALMONELLA TYPHIMURIUM, Strain/Indicator: TA1537, Metabolic Activation: NONE, Method: PREINCUBATION) of the same molecule?
A: The mutagenic call was “inactive; negative”.

Q: And the mutagenic call (Test System: AMES SALMONELLA TYPHIMURIUM, Strain/Indicator: TA1537, Metabolic Activation: RAT, LIVER, S-9, AROCLOR 1254, Method: PREINCUBATION)?
A: The mutagenic call was “inactive; negative”.

Q: What does the source list for `CC(=O)OC/C=C(C)/C=C/C=C(C)/C=C/C1=C(C)CCCC1(C)C`?
A: mutagenic call (Test System: AMES SALMONELLA TYPHIMURIUM, Strain/Indicator: TA97A, Metabolic Activation: NONE, Method: PREINCUBATION): inactive; negative; mutagenic call (Test System: AMES SALMONELLA TYPHIMURIUM, Strain/Indicator: TA97A, Metabolic Activation: RAT, LIVER, S-9, AROCLOR 1254, Method: PREINCUBATION): inactive; negative; mutagenic call (Test System: AMES SALMONELLA TYPHIMURIUM, Strain/Indicator: TA102, Metabolic Activation: NONE, Method: PREINCUBATION): inactive; negative; mutagenic call (Test System: AMES SALMONELLA TYPHIMURIUM, Strain/Indicator: TA102, Metabolic Activation: RAT, LIVER, S-9, AROCLOR 1254, Method: PREINCUBATION): inactive; negative

Q: What does the source list for `CCCCOc1cc(N=Nc2ccc(NCCO)cc2NCCO)ccc1N=Nc1c(S(=O)(=O)O)cc2ccc(N)cc2c1O`?
A: mutagenic call (Test System: AMES SALMONELLA TYPHIMURIUM, Strain/Indicator: TA98, Metabolic Activation: NONE, Method: STANDARD PLATE): inactive; negative; mutagenic call (Test System: AMES SALMONELLA TYPHIMURIUM, Strain/Indicator: TA98, Metabolic Activation: RAT, LIVER, S-9, AROCLOR 1254, Method: STANDARD PLATE): active; positive; mutagenic call (Test System: AMES SALMONELLA TYPHIMURIUM, Strain/Indicator: TA100, Metabolic Activation: NONE, Method: STANDARD PLATE): inactive; negative; mutagenic call (Test System: AMES SALMONELLA TYPHIMURIUM, Strain/Indicator: TA100, Metabolic Activation: RAT, LIVER, S-9, AROCLOR 1254, Method: STANDARD PLATE): inactive; negative; mutagenic call (Test System: AMES SALMONELLA TYPHIMURIUM, Strain/Indicator: TA1538, Metabolic Activation: NONE, Method: STANDARD PLATE): inactive; negative; mutagenic call (Test System: AMES SALMONELLA TYPHIMURIUM, Strain/Indicator: TA1538, Metabolic Activation: RAT, LIVER, S-9, AROCLOR 1254, Method: STANDARD PLATE): active; positive

Q: How did the mutagenic call (Test System: CHINESE HAMSTER V-79, Strain/Indicator: V-79 (HGPRT)/6-THIOGUANINE, Metabolic Activation: NONE) turn out when `O=[C]/C=C\C(=O)CC(=O)CC(=O)O` was run?
A: Its mutagenic call is “inactive; negative”.

Q: Which mutagenic call (Test System: AMES SALMONELLA TYPHIMURIUM, Strain/Indicator: TA100, Metabolic Activation: RAT, LIVER, S-9, PCB, Method: PREINCUBATION) does the source give for `[N-]=[N+]=NC[C@@H](CO)Cc1ccccc1` here?
A: The mutagenic call was “active; positive”.
